Data taken from PMC5077990, “P53 activation inhibits all types of hematopoietic progenitors and all stages of megakaryopoiesis” (Oncotarget, 2016).
Like-named read-outs stand apart in the source and are kept apart here.

Tests used:
[1] = system: CD34+ progenitors cultured with SCF and TPO; test: Viable CD34+ progenitors at early stage of megakaryocytic differentiation, Trypan blue exclusion; type: cell-based; conditions: Homo sapiens, read-out: IC50, decrease in number of viable cells
Description: We explored the effect of p53 stabilization on the viability of CD34^+progenitors at early stages of megakaryocytic differentiation. CD34^+ progenitors were cultured for one day in serum-free medium supplemented with SCF and TPO and treated with SAR405838 or MI-219. After a 48 or 72 hour incubation, cells were counted by Trypan blue exclusion and apoptotic cells were quantified by flow cytometry using Annexin V / Propidium iodide labeling.
A. Cells were counted by Trypan blue exclusion.

[2] = system: CFU-GM (Colony Forming Unit-Granulocyte Macrophage) progenitors from CD34+ cells; test: Colony assay in methylcellulose, CFU-GM; type: cell-based, human; conditions: Homo sapiens, CFU-GM
Description: CD34^+cells were obtained from leukapheresis samples after mobilization of donors after informed consent in agreement with our Institute Ethic Committee (Assistance Publique des Hôpitaux de Paris) and in accordance with the Declaration of Helsinki. CD34^+cells were isolated by a positive selection using an immunomagnetic cell sorting system (AutoMacs; Miltenyi Biotec, Bergisch Gladbach, Germany). 500 to 1000 normal CD34^+cells were plated either in 1% methylcellulose assay (StemCells technologies, Vancouver, Canada) to quantify erythroid (BFU-E) and granulo-monocytic (CFU-GM) progenitors or in serum-free fibrin clot assay for quantification of MK progenitors (CFU-MK) in the absence or presence of various concentration of SAR405838 or MI-219. Cultures in methylcellulose were stimulated by addition of human recombinant growth factors: G-CSF (20 ng/mL), IL-3 (10 ng/mL) SCF (25 ng/mL, Biovitrum AB, Stockholm, Sweden), IL-6 (10 ng/mL), FLT3 (10 ng/mL) and human EPO (1 U/mL). Cultures in fibrin clot were stimulated with 10 ng/mL TPO (Kirin Brewery, Tokyo, Japan) and 25 ng/mL SCF. […] CFU-MK colonies were enumerated at day 12 after labeling by an indirect immuno-alkaline phosphatase staining technique using an anti-CD41a monoclonal antibody (MoAb; Becton Dickinson, le Pont de Claix, France; clone HIP8), as previously described.

Day 6-megakaryoblasts = test: Viability of day 6-megakaryoblasts; type: cell-based, human; conditions: 0.5 μM, 72 hours
Description: We also explored the effects of p53 stabilization at a later stage of megakaryocytic differentiation. […] Day 7-MKs were treated with 5 μM Nutlin 3a for 24 or 48 hours, which led to an increase in p53, p21, BAX, BCL2 and BCL-XL levels, confirming a functional p53 activity (Figure 6A). […] Similar results were found with day 6-megakaryoblasts treated with two doses of SAR405838 for 72 hours (Figure 6D/6E) without any major effect on the percentage of CD41^+ cells (Figure 6F). […] As shown in Figure 6D/6E, at the dose of 0.5 μM the SAR405838 induced a 50% decreased in the number of viable cells while the apoptotic cells reached 50% of the total cells. We checked if the effect of SAR405838 on MKs could be reverted by the addition of high TPO doses. CD34^+ progenitors were cultured in serum-free medium supplemented with SCF and low dose of TPO (1 ng/mL) for 6 days. Day 6-megakaryoblasts were then treated with 1.5 μM of SAR405838 for 48 hours and various doses of TPO.
In parallel, the expression of P53, BAK, BCL2L1, NOXA, PUMA, BAX, P21 and P53 were quantified by qRT-PCR related to HPRT. C. […] (n=3). D, E, F. Day 6-megakaryoblasts were exposed to MI-219 or SAR405838 (0.5 or 1 μM for 72 hours) and cell viability (D), apoptosis (E) or CD41 expression (F) were investigated. […] One representative experiment (n= 2). […]

CC(C)(C)C[C@@H]1N[C@@H](C(=O)N[C@H]2CC[C@H](O)CC2)[C@H](c2cccc(Cl)c2F)[C@]12C(=O)Nc1cc(Cl)ccc12 [SAR405838]
IC50 ([1]; 48 hours of treatment): ~1500 nM
IC50 ([1]; 72 hours of treatment): ~1500 nM
IC50 ([2]; 72 h, CD34+ cells treated 3 days, washed, then plated in colony assay, read-out: IC50, reduction of CFU-GM progenitors): ~2000 nM
IC50 ([2]; CD34+ cells seeded in methylcellulose in the presence of compound, compared to untreated control, read-out: dose inducing a 50% reduction of CFU-GM numbers): 500 to 1000 nM
decrease in the number of viable cells (Day 6-megakaryoblasts): 50%
